# Where two headings read alike, the source gives them in different places.
# Columns and labels:
# [1] = test system: Febr1T-K+ (T. brucei G-quadruplex); assay: FRET melting assay, T. brucei G4; assay type: binding; details: 200 nM DNA, PIPER and 3 not reliable (spectral overlap)
# Procedure: (§1) With the library in hand, we began our investigation into G4 stabilization by conducting a Förster resonance energy transfer (FRET) melting assay to assess DNA stabilization using the procedure outlined by De Cian et. al. ^[13] […] The sequences examined (at 200 nM) were the human telomeric G4 in potassium buffer (F21T‐K^+, mixed parallel/hybrid G4) ^[14] and sodium buffer (F21T‐Na^+, antiparallel G4), ^[15] the c‐Myc promoter G‐quadruplex (FmycT‐K^+, parallel G4), ^[16] a polymorphic G4 found in T. brucei (FEBR1T‐K^+, a mixed G4 topology), ^[6b] and a hairpin duplex DNA sequence (F10T‐K^+). Together, these sequences represent targets for therapeutic intervention to treat parasitic infections, ^[6b] or cancer. ^[1b] The topology of each sequence was confirmed independently via circular dichroism (CD, Figure S1). […]
# (§2) FRET melting assays were performed to assess ligand affinity for duplex and G-quadruplex
# (§3) DNA. Briefly, oligonucleotides of interest were obtained labelled at the 5’ and 3’ ends with FAM (a fluorescence donor) and TAMRA (a fluorescence quencher), respectively. In the folded state, proximity of the donor and quencher result in no observed fluorescence from FAM, since energy is transferred non-radiatively to TAMRA by FRET. As the temperature is raised and the secondary structure denatures, the fluorophores move further apart and the fluorescence signal increases. From the resulting curve, the characteristic melting temperature (Tmax, also referred to as Tm) is defined as the temperature which corresponds to the maxima of the first derivative of the normalised fluorescence signal. The change in melting temperature (ΔTm) induced by the presence of a small molecule ligand provides an indication of the ligand’s ability to stabilise the DNA structure. FRET experiments were performed according to the […]
# (§4) procedure reported by De Cian and co-workers[S3] on a Stratagene MX3005P. The method consisted of holding at 25 °C for 5 min, before heating at 1 °C/min to 96 °C in 1 °C increments, […]
# [2] = test system: MRC5 non-tumoral cells; assay: Cytotoxicity, alamarBlue assay, MRC5; assay type: cell-based, human; details: 72 h incubation, alamarBlue fluorescence, read-out: absolute EC50 MRC5
# Procedure: Doxorubicin, suramin and miltefosine were used as control compounds.[ ^6b , ^9 ] After incubation with varied concentrations of the compounds for 72 h, cell viability was measured using either an alamarBlue™ assay (for MRC5, HeLa and T. brucei) or MTT assay (for L. major). Absolute EC50 values and selectivity indexes were then calculated from dose‐response curves (Table 2 and S14). […]
# Cell culture reagents were purchased from Thermo Fisher Scientific (Waltham, MA, USA) and used as-is. The Dulbecco’s Minimal Essential Medium (DMEM) formulation contained either high glucose (4.5 g/L, catalogue number: 10569) or low glucose (1 g/L, catalogue number:
# 10567). RPMI-1640 was provided without sodium pyruvate and with L-glutamine (catalogue number: 11875). Phosphate Buffered Saline (PBS) contained NaCl (9 g/L), KH2PO4 (144 mg/L) and Na2HPO4-7.H2O (795 mg/L, catalogue number: 10010049). TrypLE Express™ was provided with EDTA (458 mg/L) and without Phenol Red (catalogue number: 12604021).
# MRC-5 cells (human lung fibroblasts) were grown in monolayer (37 °C, 5 % CO2 and 100 % humidity) in DMEM medium (1 g/L glucose), supplemented with 10% heat-inactivated Fetal Bovine Serum (hiFBS), 2 mM L-glutamine, 100 U / mL penicillin and […]
# streptomycin. […]
# Cells were cultured according to ATCC recommendations and were used for the experiments while in the exponential growth phase. […]
# Cytotoxicity was measured through the alamarBlue® assay (Thermo Fisher Scientific).[S6,S13] Briefly, 5×10^3 MRC-5 or HeLa cells were seeded in 96-wells plates (100 µL / well) in the presence of increasing concentrations of compound. After 72 hrs of incubation at 37 °C, 20 µL of alamarBlue® solution (110 ng / ml) was added to each well and cells were reincubated for 4 hrs at 37 °C. Then, 50 µL of 3 % SDS were added to each well. The plate was incubated at 37 °C for an extra hour and then analysed by fluorescence with an Infinite F200 plate reader (TECAN Austria, GmbH). The excitation wavelength was fixed at 550 nm and the emission wavelength at 590 nm. The results are expressed as the concentration of compound that reduces
# [3] = test system: L. major; assay: Leishmaniacidal activity, MTT assay; assay type: cell-based; details: Leishmania major; 72 h incubation, MTT absorbance; read-out: absolute EC50 L. major
# Procedure: Doxorubicin, suramin and miltefosine were used as control compounds.[ ^6b , ^9 ] After incubation with varied concentrations of the compounds for 72 h, cell viability was measured using either an alamarBlue™ assay (for MRC5, HeLa and T. brucei) or MTT assay (for L. major). Absolute EC50 values and selectivity indexes were then calculated from dose‐response curves (Table 2 and S14).
# Invitrogen). L. major promastigotes (MHOM/IL/80/Friedlin) were cultured at 28 °C, 5 % CO2 in modified RPMI-1640 medium (Thermo Fisher Scientific, Waltham, MA, USA) with 10% hiFBS. Parasites were split every other day and maintained in their experimental growth phase (below 2 million parasites per mL). […]
# The results are expressed as the concentration of compound that reduces cell growth by 50 % versus untreated control cells (EC50) using GraphPad Prism 7 (GraphPad Software) to fit the data to a sigmoidal curve. Data are presented as the average of three independent measurements all conducted in triplicate conditions. […]
# The leishmaniacidal activity of the compounds on promastigotes L. major (MHOM/IL/80/Friedlin) was carried out as previously described.[S14] Briefly, 4 × 10^6 / mL promastigotes were incubated for 72 h at 28 °C in 96-well plates (50 µL/well) in the presence of increasing concentration of compounds. Cell proliferation was determined using an MTT-based assay (Sigma-Aldrich). Thus, after the 72 h incubation, 10 µL of MTT (5 mg/ml) were added to each well and parasites were reincubated for 4 hrs at 28 °C. Then, 50 µL of 20 % SDS were added to each well. The plate was then incubated at 37°C for 4-16 hrs and analysed using an Infinite F200 plate reader (TECAN Austria, GmbH). The absorbance was measured […]
# at a wavelength of 540 nm and the EC50 was calculated as described above. Data are presented as the average of three independent measurements, all conducted in triplicate conditions. […]
# [4] = test system: F21T-K+ (human telomeric G-quadruplex, mixed parallel/hybrid); assay: FRET melting assay, human telomeric G4 in potassium buffer; assay type: binding; details: 200 nM DNA, PIPER and 3 not reliable (spectral overlap)
# Procedure: as §1, §2, §3, §4
# [5] = test system: FmycT-K+ (c-Myc promoter G-quadruplex, parallel); assay: FRET melting assay, c-Myc promoter G4; assay type: binding; details: 200 nM DNA, PIPER and 3 not reliable (spectral overlap)
# Procedure: as §1, §2, §3, §4
# [6] = 5 μM ligand, 10 mM KCl, 90 mM LiCl, 10 mM Li cacodylate
# [7] = 5 μM ligand, 1 mM KCl, 99 mM LiCl, 10 mM Li cacodylate
SMILES,ΔTm Febr1T-K+ ([1]; 1 µM ligand),"ΔTm Febr1T-K+ [1, 6]",ΔTm Febr1T-K+ ([1]; 10 µM ligand),"EC50 ([2]; Homo sapiens, MRC5, 72 h)",EC50 [3],EC50 [2],ΔTm F21T-K+ ([4]; 1 µM ligand),"ΔTm F21T-K+ [4, 6]",ΔTm F21T-K+ ([4]; 10 µM ligand),ΔTm FmycT-K+ ([5]; 1 µM ligand),"ΔTm FmycT-K+ [5, 7]",ΔTm FmycT-K+ ([5]; 10 µM ligand)
CN1CCN(CCCN2C(=O)c3ccc4c5c(ccc(c35)C2=O)C(=O)N(CCCN2CCN(C)CC2)C4=O)CC1 [Compound 1],7 ± 3 °C,9±1 °C,11 ± 3 °C,3.9 ± 0.5 µM,0.47 ± 0.07 µM,,,,,,,
CN1CCN(CCCN2C(=O)c3ccc4c5ccc6c7c(ccc(c8ccc(c3c48)C2=O)c75)C(=O)N(CCCN2CCN(C)CC2)C6=O)CC1 [Compound 3],2 ± 1 °C,33±1 °C,39 ± 1 °C,2 µM,> 100 µM,2.1 ± 0.6 µM,10 ± 1 °C,34±1 °C,33 ± 1 °C,24 ± 1 °C,37±2 °C,> 40 °C
CN1CCN(CCCN2C(=O)c3ccc(Oc4ccc(C(C)(C)c5ccc(Oc6ccc7c(c6)C(=O)N(CCCN6CCN(C)CC6)C7=O)cc5)cc4)cc3C2=O)CC1 [Compound 9],,−4±1 °C,-3 ± 1 °C,88 ± 10 µM,> 100 µM,,,−1±1 °C,8 ± 3 °C,,−1±2 °C,10 ± 3 °C
CN1CCN(CCCNC(=O)c2ccc(Oc3ccc(C(C)(C)c4ccc(Oc5ccc(C(=O)NCCCN6CCN(C)CC6)c(C(=O)NCCCN6CCN(C)CC6)c5)cc4)cc3)cc2C(=O)NCCCN2CCN(C)CC2)CC1 [Compound 11],1 ± 1 °C,6±1 °C,13 ± 1 °C,59 ± 37 µM,18 ± 1 µM,,-2 ± 1 °C,7±2 °C,9 ± 1 °C,-3 ± 1 °C,5±1 °C,10 ± 2 °C

# — paper PMC8251916 (Chemistry (Weinheim an Der Bergstrasse, Germany), 2021)
